Source: patent US20240239788A1, “SMALL MOLECULE INHIBITORS OF KRAS G12D MUTANT” (Merck Sharp & Dohme LLC, priority 2021, published 2024)
Counter-ions that a name gives are not always drawn.

Biological target: KRAS protein containing G12D mutation (Homo sapiens (Human), UniProt P01116, G12D)
Test: SOS-catalyzed nucleotide exchange assay (GNE), TR-FRET
Format: biochemical
Conditions: biotinylated KRAS G12D, SOS and GTP, 60-minute incubation
Experimental: Compounds are added to this complex and then after a 60-minute incubation time the mixture is treated with SOS and unlabeled GTP. Small molecule inhibitors stabilize the Bodipy-GDP complex whereas the untreated protein rapidly exchanges Bodipy-GDP for unlabeled GTP resulting in reduced TR-FRET signal.
This solution is referred to as biotinylated KRAS G12D stock solution.

Sequence of KRAS protein containing G12D mutation (P01116 other isoform, or with tags, fused parts or gaps G12D (already in the parent)): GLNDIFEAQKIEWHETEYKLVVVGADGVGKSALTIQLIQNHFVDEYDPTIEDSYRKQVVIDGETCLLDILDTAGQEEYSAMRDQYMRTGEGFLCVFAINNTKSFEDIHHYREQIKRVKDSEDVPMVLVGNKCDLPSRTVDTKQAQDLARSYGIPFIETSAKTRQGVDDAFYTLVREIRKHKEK

SMILES: CN(C)C[C@@]1(COc2nc(N3C[C@H]4CC[C@@H](C3)N4)c3cc(F)c(-c4c(C(F)(F)F)c(Cl)cc5cnn(C)c45)c(F)c3n2)CC1(F)F (single isomer, unassigned) [201a]
- IC50: 11100 nM

SMILES: C#Cc1c(F)ccc2ccc(F)c(-c3c(F)cc4c(N5CC6CC[C@@](C)(C5)N6)nc(OC[C@@]56CCCN5C[C@H](F)C6)nc4c3F)c12 (single isomer, unassigned) [246a]
- IC50: 41.3 nM

SMILES: C#Cc1c(F)ccc2ccc(F)c(-c3c(F)cc4c(N5CC6CC[C@@](C)(C5)N6)nc(OC[C@@]56CCCN5C[C@H](F)C6)nc4c3F)c12 (single isomer, unassigned) [246b]
- IC50: 165 nM

SMILES: Cc1cc(N)nc(-c2c(Cl)cc3c(N4CC5CC(O)C(C4)N5)nc(OC[C@@]45CCCN4C[C@H](F)C5)nc3c2F)c1C(F)(F)F (single isomer, unassigned) [249a]
- IC50: 351 nM

SMILES: Cc1nc2[nH]nc(C)c2c(-c2c(F)cc3c(N4C[C@H]5CC[C@@H](C4)N5)nc(OC[C@@]45CCCN4C[C@H](F)C5)nc3c2F)c1C(F)(F)F (single isomer, unassigned) [250a]
- IC50: 400 nM

SMILES: C#Cc1c(F)ccc2cc(N)nc(-c3c(F)cc4c(N5C[C@H]6CC[C@@H](C5)N6)nc(OC[C@@]56CCCN5C[C@H](F)C6)nc4c3F)c12 (single isomer, unassigned) [252b]
- IC50: 204 nM

SMILES: CNc1cc(C)c(C(F)(F)F)c(-c2c(F)cc3c(N4CC5CCC(C4)N5)nc(OCC4(CN5CCOCC5)CC4)nc3c2F)n1 (single isomer, unassigned) [Ex. 137a]
- IC50: 1610 nM

SMILES: CNc1cc(C)c(C(F)(F)F)c(-c2c(F)cc3c(N4CC5CCC(C4)N5)nc(OCC4(CN5CCOCC5)CC4)nc3c2F)n1 (single isomer, unassigned) [Ex. 137b]
- IC50: 4820 nM

SMILES: Cc1nc(N)cc(-c2c(F)cc3c(N4C[C@H]5CC[C@@](C)(C4)N5)nc(OCC4(CN5CCOCC5)CC4)nc3c2F)c1C(F)(F)F (single isomer, unassigned) [Ex. 139a]
- IC50: 1670 nM

SMILES: Cc1nc(N)cc(-c2c(F)cc3c(N4C[C@H]5CC[C@@](C)(C4)N5)nc(OCC4(CN5CCOCC5)CC4)nc3c2F)c1C(F)(F)F (single isomer, unassigned) [Ex. 139b]
- IC50: 287 nM

SMILES: Cc1cc(N)c(F)c(-c2c(F)cc3c(N4CC5CCC(C4)N5)nc(OC[C@@]45CCCN4C[C@H](F)C5)nc3c2F)c1C(F)(F)F (single isomer, unassigned) [Ex. 146b]
- IC50: 25.2 nM

SMILES: Nc1cc(Cl)c(C(F)(F)F)c(-c2c(Cl)cc3c(N4CC5CCC(C4)N5)nc(OC[C@@]45CCCN4C[C@H](F)C5)nc3c2F)n1 (single isomer, unassigned) [Ex. 154b]
- IC50: 381 nM

SMILES: Nc1cc(-c2c(Cl)cc3c(N4CC5CCC(C4)N5)nc(OC[C@@]45CCCN4C[C@H](F)C5)nc3c2F)c(C(F)(F)F)c(Cl)n1 (single isomer, unassigned) [Ex. 155a]
- IC50: 330 nM

SMILES: Cc1nc(N)c(C#N)c(-c2c(F)cc3c(N4CC5CCC(C4)N5)nc(OC[C@@]45CCCN4C[C@H](F)C5)nc3c2F)c1C(F)(F)F (single isomer, unassigned) [Ex. 156a]
- IC50: 14 nM

SMILES: Cc1nc(N)c(C#N)c(-c2c(F)cc3c(N4CC5CCC(C4)N5)nc(OC[C@@]45CCCN4C[C@H](F)C5)nc3c2F)c1C(F)(F)F (single isomer, unassigned) [Ex. 156b]
- IC50: 554 nM

SMILES: Cc1cc(N)nc(-c2c(Cl)cc3c(N4CC5CCC(C4)N5)nc(OC[C@@]45CCCN4C[C@H](F)C5)nc3c2F)c1CC(F)(F)F (single isomer, unassigned) [Ex. 157a]
- IC50: 113 nM

SMILES: Cc1cc(N)nc(-c2c(Cl)cc3c(N4CC5CCC(C4)N5)nc(OC[C@@]45CCCN4C[C@H](F)C5)nc3c2F)c1CC(F)(F)F (single isomer, unassigned) [Ex. 157b]
- IC50: 2940 nM

SMILES: C#Cc1cccc2cc(O)cc(-c3c(F)cc4c(N5C[C@H]6CC[C@@](C)(C5)N6)nc(OC)nc4c3F)c12 (single isomer, unassigned) [Ex. 171b, TFA]
- IC50: 3470 nM

SMILES: C[C@]12CCC(CN(c3nc(OCC45CCCN4CC(C(F)F)C5)nc4c(F)c(-c5cc(O)cc6cccc(Cl)c56)c(F)cc34)C1)N2 (single isomer, unassigned) [Ex. 173-2b]
- IC50: 2230 nM

SMILES: C[C@@]12CC[C@H](CN(c3nc(OC[C@@]45CCCN4C[C@H](F)C5)nc4c(F)c(-c5cc(O)c(Cl)c6cccc(Cl)c56)c(F)cc34)C1)N2 (single isomer, unassigned) [Ex. 174a]
- IC50: 3130 nM

SMILES: C[C@@]12CC[C@H](CN(c3nc(OC[C@@]45CCCN4C[C@H](F)C5)nc4c(F)c(-c5cc(O)c(Cl)c6cccc(Cl)c56)c(F)cc34)C1)N2 (single isomer, unassigned) [Ex. 174b]
- IC50: 1000 nM

SMILES: C[C@]12CCC(CN(c3nc(OC[C@@H]4CC[C@H]5CC(F)(F)CCN45)nc4c(F)c(-c5cc(O)cc6cccc(Cl)c56)c(F)cc34)C1)N2 (single isomer, unassigned) [Ex. 175b]
- IC50: 11100 nM

SMILES: Cc1cccc2cc(O)cc(-c3c(F)cc4c(N5CC6CC[C@@](C)(C5)N6)nc(OC[C@@]56CCCN5C[C@H](F)C6)nc4c3F)c12 (single isomer, unassigned) [Ex. 179a]
- IC50: 5.07 nM

SMILES: Cc1cccc2cc(O)cc(-c3c(F)cc4c(N5CC6CC[C@@](C)(C5)N6)nc(OC[C@@]56CCCN5C[C@H](F)C6)nc4c3F)c12 (single isomer, unassigned) [Ex. 179b]
- IC50: 727 nM

SMILES: C[C@]12CCC(CN(c3nc(OC[C@@]45CCCN4C[C@H](F)C5)nc4c(F)c(-c5cc(O)cc6cccc(C(F)F)c56)c(F)cc34)C1)N2 (single isomer, unassigned) [Ex. 181a]
- IC50: 3.97 nM

SMILES: C[C@]12CCC(CN(c3nc(OC[C@@]45CCCN4C[C@H](F)C5)nc4c(F)c(-c5cc(O)cc6cccc(C(F)F)c56)c(F)cc34)C1)N2 (single isomer, unassigned) [Ex. 181b]
- IC50: 141 nM

SMILES: C[C@]12CCC(CN(c3nc(OC[C@@]45CCCN4C[C@H](F)C5)nc4c(F)c(-c5cc(Cl)cc6cccc(Cl)c56)c(F)cc34)C1)N2 (single isomer, unassigned) [Ex. 184]
- IC50: 4720 nM

SMILES: Nc1cc2cccc(Cl)c2c(-c2c(F)cc3c(N4CC5CCC(C4)N5)nc(OC[C@@]45CCCN4C[C@H](F)C5)nc3c2F)n1 (single isomer, unassigned) [Ex. 189b]
- IC50: 11100 nM

SMILES: Cc1cc(N)nc(-c2c(F)cc3c(N4CC5CC[C@@](C)(C4)N5)nc(OC[C@@]45CCCN4C[C@H](F)C5)nc3c2F)c1C(F)(F)F (single isomer, unassigned) [Ex. 200b]
- IC50: 1130 nM

SMILES: CC(O)(COc1nc(N2CC3CC[C@@](C)(C2)N3)c2cc(F)c(-c3cc(O)cc4cccc(Cl)c34)c(F)c2n1)CN1CC[C@@H](F)C1 (single isomer, unassigned) [Ex. 210]
- IC50: 2150 nM

SMILES: C#Cc1cccc2cccc(-c3c(F)cc4c(N5CC6CC[C@@](C)(C5)N6)nc(OC[C@@]56CCCN5C[C@H](F)C6)nc4c3F)c12 (single isomer, unassigned) [Ex. 211a]
- IC50: 2080 nM

SMILES: C[C@]12CCC(CN(c3nc(OC[C@]4(CNCC(F)F)CC4(F)F)nc4c(F)c(-c5cc(O)cc6cccc(Cl)c56)c(F)cc34)C1)N2 (single isomer, unassigned) [Ex. 221]
- IC50: 1110 nM

SMILES: Cc1cc2[nH]nc(C)c2c(-c2c(F)cc3c(N4CC5CCC(C4)N5)nc(OC[C@@]45CCCN4C[C@H](F)C5)nc3c2F)c1OC(F)F (single isomer, unassigned) [Ex. 233a]
- IC50: 1070 nM

SMILES: Cc1cc2[nH]nc(C)c2c(-c2c(F)cc3c(N4CC5CCC(C4)N5)nc(OC[C@@]45CCCN4C[C@H](F)C5)nc3c2F)c1OC(F)F (single isomer, unassigned) [Ex. 233b]
- IC50: 6.11 nM

SMILES: C[C@]12CC[C@H](CN(c3nc(OCC45CCCN4CCC(F)(F)C5)nc4c(F)c(-c5cc(O)cc6cccc(Cl)c56)c(F)cc34)C1)N2 (single isomer, unassigned) [Example 116a]
- IC50: 2890 nM

SMILES: Cc1cc2[nH]ncc2c(-c2c(F)cc3c(N4CC5CCC(C)(C4)N5)nc(OCC4(CN5CCOCC5)CC4)nc3c2F)c1OC(F)(F)F (stereo in doubt) [Ex. 125, 4-((1-(((6,8-difluoro-7-(6-methyl-5-(trifluoromethoxy)-1H-indazol-4-yl)-4-((1S,5R)-1-methyl-3,8-diazabicyclo[3.2.1]octan-3-yl)quinazolin-2-yl)oxy)methyl)cyclopropyl)methyl) morpholine]
- IC50: 148 nM

SMILES: Cc1cc2cnn(C)c2c(-c2c(F)cc3c(N4C[C@H]5CC[C@@H](C4)N5)nc(OC[C@@]45CCCN4C[C@H](F)C5)nc3c2F)c1C(F)(F)F [251a, 4-((1R,5S)-3,8-diazabicyclo[3.2.1]octan-3-yl)-7-(1,5-dimethyl-6-(trifluoromethyl)-1H-indazol-7-yl)-6,8-difluoro-2-(((2R, 7aS)-2-fluorotetrahydro-1H-pyrrolizin-7a(5H)-yl)methoxy)quinazoline]
- IC50: 5.15 nM

SMILES: Cc1cc2cn(C)nc2c(-c2c(F)cc3c(N4C[C@H]5CC[C@@H](C4)N5)nc(OC[C@@]45CCCN4C[C@H](F)C5)nc3c2F)c1C(F)(F)F [251b, 4-((1R,5)-3,8-diazabicyclo[3.2.1]octan-3-yl)-7-(2,5-dimethyl-6-(trifluoromethyl)-2H-indazol-7-yl)-68-difluoro-2-(((2R,7aS)-2-fluorotetrahydro-1H-pyrrolizin-7a(5H)-yl)methoxy)quinazoline]
- IC50: 935 nM

SMILES: C[C@]12CC[C@H](CN(c3nc(OC[C@@]45CCCN4C[C@H](F)C5)nc4c(F)c(-c5cccn6cccc56)c(F)cc34)C1)N2 [Ex. 130, 6,8-difluoro-2-(((2R,7aS)-2-fluorotetrahydro-1H-pyrrolizin-7a(5H)-yl)methoxy)-7-(indolizin-8-yl)-4-((1S,5R)-1-methyl-3,8-diazabicyclo[3.2.1]octan-3-yl)quinazoline, 2TFA]
- IC50: 4190 nM

SMILES: Cc1nc(N)cc(-c2c(Cl)cc3c(N4C[C@H]5CC[C@@](C)(C4)N5)nc(OCC4(CN5CCOCC5)CC4)nc3c2F)c1C(F)(F)F [Ex. 138, 4-(6-chloro-8-fluoro-4-((1S,5R)-1-methyl-3,8-diazabicyclo[3.2.1]octan-3-yl)-2-((1-(morpholinomethyl)cyclopropyl)methoxy)quinazolin-7-yl)-6-methyl-5-(trifluorometh-yl)pyridin-2-amine]
- IC50: 361 nM
